Assay results: patent US20250084080A1, “CRYSTALLINE AND SALT FORMS OF AN NLRP3 INHIBITOR” (BioAge Labs, Inc., priority 2023, published 2025)
Converted amounts (≈) assume the structure as drawn.

Legend:
Format in all cases: physicochemical
[1] = Exposure of Pattern C in ambient condition (variable temperature XRPD); conditions: 23° C., 27% RH
Experimental: Pattern C is an anhydrate. It was obtained in variable temperature XRPD experiment by heating Pattern A to 100° C. under the nitrogen atmosphere. Pattern C is of high crystallinity. According to the DSC thermogram of Pattern A, Pattern C has a melting peak at Tonset of 134.2° C. Pattern C is a metastable form.

[2] = Solubility at 37° C. in buffers and biorelevant media, XRPD of residual solid; conditions: for XRPD of residual solid: 24 h; for solubility: thermodynamic from solid
Experimental: Solubility of BAL-0748 free form Pattern B was investigated in pH 1.2 HCl buffer, pH 4.5 50 mM acetate buffer, pH 6.8 50 mM phosphate buffer, water, pH 1.6 FaSSGF, pH 6.5 FaSSIF-v1, pH 5.0 FeSSIF-v1 and 2% HPMC+1% Pluronic F68 in pH 4.5 50 mM acetate buffer at 37° C. for 2 h and 24 h. Residual solids after the solubility test were analyzed by XRPD.
Solubility of the free form Pattern A, the HCl salt Pattern A, the phosphate salt Pattern A, and the sodium salt Pattern A was measured in pH 1.2 HCl buffer, pH 4.5 acetate buffer (50 mM), pH 6.8 phosphate buffer (50 mM), water, pH 1.6 FaSSGF, pH 6.5 FaSSIF-v1, pH 5.0 FeSSIF-v1, and 2% HPMC+1% Pluronic F68 in pH 4.5 acetate buffer (50 mM) at 37° C. for 2 hours and 24 hours.
10.4 mg of the free form Pattern A, 10.0 mg of the free form Pattern B, 10.8 mg of the HCl salt Pattern A, 12.2 mg of the phosphate salt Pattern A, or 10.5 mg of the sodium salt Pattern A was weighed into a 20 mL glass vial, respectively. 5 mL of solubility medium was added. The salt amount used was equivalent to 10 mg anhydrous free form. Obtained suspensions were stirred at 37° C. at 400 rpm and sampled at 2 hours and at 24 hours. The samples were centrifuged at 37° C. at 14,000 rpm for 5 min. Supernatants were analyzed by HPLC and PH meter for solubility and pH value, respectively. Residual solids (wet cakes) from the 24 hours samples were also characterized by XRPD to determine physical form.

[3] = Bulk stability (solid state, 1 week; HPLC, XRPD, IC, color); conditions: 25° C./92.5% RH open, 40° C./75% RH open, 60° C. tight container
Experimental: Bulk stability of free form Pattern B was evaluated at 25° C./92.5% RH in an open container, at 40° C./75% RH in an open container and at 60° C. in a tight container over 1 week.

[4] = Hygroscopicity by dynamic vapor sorption (DVS) at 25° C.; conditions: DVS at 25° C.
Experimental: Dynamic vapor sorption (DVS) was performed on an Intrinsic, Advantage or Adventure with an oven temperature of 25° C. using water as a solvent. The sample mass was about 5-10 mg using the following method: • Cycle: 40-0-95-0-40% RH • Stage Step: 10% • Equilibrium: 0.002 dm/dt (%/min) • Minimum dm/dt stability duration: 60 min • Maximum dm/dt stage time: 360 min. Hygroscopicity of free form Pattern B was evaluated by dynamic vapor sorption (DVS) test at 25° C. […] It absorbed about 0.8% water at 80% RH at 25° C.

SMILES | Form conversion after exposure in ambient condition [1] | XRPD of residual solid ([2]; FaSSGF, pH 1.6, 37° C.) | Form after the solubility test (XRPD) ([2]; most of media) | XRPD of residual solid ([2]; pH 1.2 HCl buffer, 37° C.) | solubility ([2]; other media (pH 4.5 acetate, pH 6.8 phosphate, water, FaSSIF-v1, HPMC/Pluronic), 37° C., 2 h and 24 h) [µg/mL] | solubility ([2]; pH 1.2 HCl buffer, pH 1.6 FaSSGF and pH 5.0 FeSSIF-v1, 37° C.) [µg/mL] | Bulk stability, chemical and physical [3] | Degradation by HPLC [3] | Form change by XRPD [3] | Hygroscopicity [4] | XRPD after DVS test [4] | Water absorbed at 80% RH ([4]; 80% RH)
CCOc1cc(C(=O)N(C)Cc2cnc(CO)c3cn[nH]c23)ccc1-c1cc(F)cc(F)c1 [Pattern C, 2-ethoxy-3′,5′-difluoro-N-((4-(hydroxymethyl)-1H-pyrazolo[4,3-c]pyridin-7-yl)methyl)-N-methyl-[1,1′-biphenyl]-4-carboxamide] | converted to Pattern A | – | – | – | – | – | – | – | – | – | – | –
CCOc1cc(C(=O)N(C)Cc2cnc(CO)c3cn[nH]c23)ccc1-c1cc(F)cc(F)c1 [Free form Pattern B, 2-ethoxy-3′,5′-difluoro-N-((4-(hydroxymethyl)-1H-pyrazolo[4,3-c]pyridin-7-yl)methyl)-N-methyl-[1,1′-biphenyl]-4-carboxamide] | – | hemi-HCl salt Pattern A | no form change or partially converted to free form Pattern A | Mono-HCl salt Pattern A | 2 to 80 (≈ 4.42 to 177 µM) | 100 to 600 (≈ 221 to 1330 µM) | physically and chemically stable | no obvious degradation | no form change | slightly hygroscopic | still Pattern B | about 0.8%
